ChEMBL document CHEMBL1124201, “Optimizing of 2,3-diarylindenes as fluorescent estrogens: variation of the acceptor group, ortho substitution of the 2-ring, and C-1 methylation” (J Med Chem, 1988)

Target: Estrogen receptor (Rattus norvegicus) (UniProt P06211+Q62986)
Test: Displacement of [3H]estradiol from estrogen receptor of rat uterine cytosol
Assay type: protein assay

Compound | RBA
CC1C(c2ccccc2)=C(c2ccccc2)c2ccc(O)cc21 (stereo unspecified) | 12%
N#Cc1ccc(C2=C(c3ccc(O)cc3)c3ccc(O)cc3C2)cc1 | 1%
O=[N+]([O-])c1ccc(C2=C(c3ccccc3)c3ccc(O)cc3C2)cc1 | 0.46%
Oc1ccc(C2=C(c3ccccc3)c3ccc(O)cc3C2)cc1 | 28%
O=[N+]([O-])c1ccc(C2=C(c3ccc(O)cc3)c3ccc(O)cc3C2)cc1 | 0.69%
Oc1ccc(C2=C(c3ccc(Br)cc3)Cc3cc(O)ccc32)cc1 | 0.76%
Oc1ccc(C2=C(c3ccccc3)Cc3cc(O)ccc32)cc1 | 4.7%

The next lines start with the values.

RBA | Compound
30% | Cc1ccccc1C1=C(c2ccc(O)cc2)c2ccc(O)cc2C1
0.05% | Oc1ccc(C2=C(c3cccnc3)Cc3cc(O)ccc32)cc1
38% | Oc1ccc(C2=C(c3ccccc3C(F)(F)F)Cc3cc(O)ccc32)cc1
0.6% | O=[N+]([O-])c1cccc(C2=C(c3ccc(O)cc3)c3ccc(O)cc3C2)c1
